Consider two compounds from paper PMC4105567, “Aurora Kinases as Druggable Targets in Pediatric Leukemia: Heterogeneity in Target Modulation Activities and Cytotoxicity by Diverse Novel Therapeutic Agents” (PLoS ONE, 2014).

Where two headings read alike, the source gives them in different places.

One assay relates to B1 B-ALL cell line. Put plainly: Cytotoxicity assay, B1. It counts as cell-based, human. Conditions: four days in culture, Alamar blue assay or automated microscopy, ± SD, three experiments. The method, then:
(§1) Cell lines were cultured in Opti-MEM medium (Gibco, Life Technologies Corporation, Burlington, Ontario) supplemented with 10% heat inactivated fetal bovine serum (FBS) (Gibco), 100 units/ml penicillin and 100 units/ml streptomycin (Gibco) and 0.05 mM 2-mercaptoethanol (Sigma-Aldrich, Oakville, Ontario) in T25 flasks (Nalge Nunc, Rochester, New York) or T75 flasks (Corning Incorporated, Corning, New York). All cell cultures were maintained at 37°C in a humidified incubator with 5% CO2.
(§2) For cytotoxicity profiling of Aurora kinase inhibitors against leukemia cell lines, inhibitors or vehicle control (DMSO, Sigma-Aldrich) were diluted in 100 µl of Opti-MEM per well in 96 well plates (Grenier Bio-One, Monroe, North Carolina) in triplicate at final concentrations ranging from 1×10^−6 to 10 µM. 1×10^4 cells per well were seeded and plates were incubated for 4 days. Following incubation for 4 days, cell survival was quantified by Alamar blue assay (Invitrogen) or automated inverted microscopy using the Celigo Cell Cytometer (Cyntellect, San Diego, California). […] During this period of incubation, the absorbance at 570–620 nm was measured (Opsys MR Plate Reader, Dynex Technologies, Chantilly, Virginia) at various time points, depending on the cell line or sample. Percent survival was calculated by comparing the absorbance ratio of the test well to the control well multiplied by 100%, as indicated in the following formula: […]
(§3) For automated inverted microscopy, the number of cells in each well was determined using the direct cell counting application as described previously. Briefly, following adjustment of image acquisition settings for bright-field imaging, the wells containing cells and appropriate dilutions of inhibitors were individually scanned. Based on these images, analysis parameters, including intensity threshold and cell diameter, were modified for optimal inclusion of viable cells in treated and control wells. These parameters were applied for subsequent replicates involving the same leukemia cell line or sample. The percent survival was then calculated as a ratio of the number of cells in treated wells to the number of cells in control wells multiplied by 100%. Given that Aurora kinase inhibitors interfere with cytokinesis, cells that are committed to death may still contain enlarging but intact cytoplasmic content before the eventual loss of cytoplasmic membrane integrity. The accuracy of Alamar blue assay may be, in theory, affected by the timing of these events.
A general note: The colour change of resazurin is a common sign of viable cells or microbes.

Another assay concerns HL-60 APML cell line. The assay is described as follows: Cytotoxicity assay, HL-60. It counts as cell-based, human. Conditions: APML cell line HL-60, four days in culture, Alamar blue assay or automated microscopy, ± SD, three experiments. The method, then: as §1, §2, §3
A further assay relates to MV4-11 AML cell line. The assay is described as follows: Cytotoxicity assay, MV4-11. It counts as cell-based, human. To be noted: AML cell line MV4-11, four days in culture, Alamar blue assay or automated microscopy, ± SD, three experiments. The method, then: as §1, §2, §3
Another assay deals with Molm13 AML cell line. Put plainly: Cytotoxicity assay, Molm13. It counts as cell-based, human. Conditions: four days in culture, Alamar blue assay or automated microscopy, ± SD, three experiments. The method, then: as §1, §2, §3
Assay [1] concerns normal cells versus leukemia cell lines. The assay is described as follows: Comparison of cytotoxicity IC50 values, normal cells versus leukemia cell lines. Conditions: normal lymphocytes and bone marrow stroma versus leukemia cell lines of Table 2. The class given is cell-based, human. The method, then: as §2, §3
The subject of the next assay is Normal Lymphocytes. The assay is described as follows: Cytotoxicity assay, normal lymphocytes. It counts as cell-based, human. Conditions: normal lymphocytes (control for non-leukemia cytotoxicity), four days in culture, ± SD, three experiments. The method, then: (§4) These include B-ALL (Patient #1), relapsed AML (Patient #2), AML/CML (Patient #3), infant ALL (Patient #4), and initial ALL presenting with secondary AML (Patient #5). […] The diluted sample was then layered on a Ficoll-Paque (GE Healthcare, Piscataway, New Jersey) gradient at a 1∶2 ratio of Ficoll to diluted sample. Samples were then centrifuged 1800 rpm for 20 minutes at room temperature. The buffy coat was removed with a pipette and transferred to a new centrifuge tube and diluted with PBS. After an additional centrifugation at 1200 rpm, the white blood cell pellet was washed with PBS and centrifuged one last time. Cells were re-suspended in Opti-MEM and viable cells were counted using trypan blue (Invitrogen, Life Technologies Corporation, Burlington, Ontario) exclusion on a haemocytometer. An identical protocol was followed for the isolation of white blood cells, referred to as “normal lymphocytes” in the following paragraphs, from healthy volunteers. Samples grown in culture for up to six months were cultured in Opti-MEM medium supplemented with 10% heat inactivated FBS, penicillin/streptomycin and 2-mercaptoethanol.
as §2, §3

Assay [2] relates to Patient #5 ALL/AML primary leukemia cells. Put plainly: Cytotoxicity assay, primary sample Patient #5. The class given is cell-based, human. To be noted: primary sample, four days in culture, Alamar blue assay or automated microscopy, one complete study, read-out: IC50, Patient #5 ALL/AML. The method, then: as §4, §2, §3
The test system of the next assay is Bone Marrow Stroma. Put plainly: Cytotoxicity assay, bone marrow stroma. It counts as cell-based, human. Conditions: bone marrow stroma (control for non-leukemia cytotoxicity), four days in culture, ± SD, three experiments. The method, then:
as §2, §3

The next assay concerns Nalm6 B-ALL cell line. The assay is described as follows: Cytotoxicity assay, Nalm6. To be noted: four days in culture, Alamar blue assay or automated microscopy, ± SD, three experiments. The class given is cell-based, human. The method, then:
as §1, §2, §3

A further assay concerns CEM T-ALL cell line. Put plainly: Cytotoxicity assay, CEM. Conditions: four days in culture, Alamar blue assay or automated microscopy, ± SD, three experiments. The class given is cell-based, human. The method, then:
as §1, §2, §3

Assay [3] relates to Patient #3 AML/CML primary leukemia cells. Put plainly: Cytotoxicity assay, primary sample Patient #3. It counts as cell-based, human. To be noted: four days in culture, Alamar blue assay or automated microscopy, one complete study. The method, then:
as §4, §2, §3

A further assay deals with HL-60 RA APML cell line. Put plainly: Cytotoxicity assay, HL-60 RA. The class given is cell-based, human. Conditions: APML cell line HL-60 RA, four days in culture, Alamar blue assay or automated microscopy, ± SD, three experiments. The method, then: as §1, §2, §3
In assay [4] the test system is Patient #2 relapsed AML primary leukemia cells. Put plainly: Cytotoxicity assay, primary sample Patient #2. It counts as cell-based, human. To be noted: four days in culture, Alamar blue assay or automated microscopy, one complete study. The method, then: as §4, §2, §3
In a further assay the test system is C1 B-ALL cell line. Put plainly: Cytotoxicity assay, C1. The class given is cell-based, human. To be noted: four days in culture, Alamar blue assay or automated microscopy, ± SD, three experiments. The method, then: as §1, §2, §3
The subject of another assay is NB4 APML cell line. Put plainly: Cytotoxicity assay, NB4. To be noted: four days in culture, Alamar blue assay or automated microscopy, ± SD, three experiments. It counts as cell-based, human. The method, then:
as §1, §2, §3

The subject of another assay is UOCB1 B-ALL cell line. The assay is described as follows: Cytotoxicity assay, UOCB1. The class given is cell-based, human. To be noted: four days in culture, Alamar blue assay or automated microscopy, ± SD, three experiments. The method, then:
as §1, §2, §3

For the next assay, the system named is Molt-3 T-ALL cell line. The assay is described as follows: Cytotoxicity assay, Molt-3. The class given is cell-based, human. To be noted: T-ALL cell line Molt-3, four days in culture, Alamar blue assay or automated microscopy, ± SD, three experiments. The method, then: as §1, §2, §3
Another assay deals with SEM B-ALL cell line. Put plainly: Cytotoxicity assay, SEM. It counts as cell-based. Conditions: Homo sapiens, 96 h, four days in culture, Alamar blue assay or automated microscopy, ± SD, three experiments. The method, then:
as §1, §2, §3

For assay [5], the system named is Patient #1 B-ALL primary leukemia cells. The assay is described as follows: Cytotoxicity assay, primary sample Patient #1. It counts as cell-based, human. To be noted: four days in culture, Alamar blue assay or automated microscopy, one complete study. The method, then: as §4, §2, §3
Another assay relates to KOPN8 B-ALL cell line. The assay is described as follows: Cytotoxicity assay, KOPN8. The class given is cell-based, human. Conditions: four days in culture, Alamar blue assay or automated microscopy, ± SD, three experiments. The method, then: as §1, §2, §3
In another assay the test system is TIB-202 AML cell line. The assay is described as follows: Cytotoxicity assay, TIB-202. It counts as cell-based, human. To be noted: AML cell line TIB-202, four days in culture, Alamar blue assay or automated microscopy, ± SD, three experiments. The method, then: as §1, §2, §3
In assay [6] the test system is Patient #4 infant leukemia primary cells. Put plainly: Cytotoxicity assay, primary sample Patient #4. It counts as cell-based, human. Conditions: four days in culture, Alamar blue assay or automated microscopy, one complete study. The method, then:
as §4, §2, §3

As to `COc1cc(Nc2ncc3c(n2)-c2ccc(Cl)cc2C(c2c(F)cccc2OC)=NC3)ccc1C(=O)O` [MLN8237], the IC50 came out at 4 ± 3 nM in the assay on B1 B-ALL cell line (Homo sapiens, 96 h); 9 ± 0.9 nM in the assay on HL-60 APML cell line (Homo sapiens, 96 h); 4 ± 1 nM with MV4-11 AML cell line (Homo sapiens, 96 h); 4 ± 2 nM in the assay with Molm13 AML cell line (Homo sapiens, MOLM-13, 96 h); 5000 ± 2000 nM in the assay with Normal Lymphocytes (Homo sapiens, Lymphocyte, 96 h); 0.1 nM in assay [2] (Homo sapiens, 96 h). In addition, the IC50 with Bone Marrow Stroma (Homo sapiens, 96 h) was greater than 10000 nM; in the assay with Nalm6 B-ALL cell line (Homo sapiens, NALM-6, 96 h), 6 ± 3 nM; in the assay with CEM T-ALL cell line (Homo sapiens, 96 h), less than 0.001 nM; in [3] (Homo sapiens, 96 h), 700 nM; in the assay with HL-60 RA APML cell line (Homo sapiens, 96 h), 4 ± 2 nM; in assay [4] (Homo sapiens, 96 h), 500 nM. Further, the IC50 in the assay on C1 B-ALL cell line (Homo sapiens, 96 h) is 3 ± 1 nM; in the assay with NB4 APML cell line (Homo sapiens, 96 h) it was 60 ± 8 nM; with UOCB1 B-ALL cell line (Homo sapiens, UoC-B1, 96 h), 0.003 nM; in the assay on Molt-3 T-ALL cell line (Homo sapiens, 96 h), less than 0.001 nM; in the assay with SEM B-ALL cell line, 4 ± 1 nM; in [5] (Homo sapiens, 96 h) it was 6 nM. In addition, the IC50 came out at 5 ± 2 nM with KOPN8 B-ALL cell line (Homo sapiens, KOPN-8, 96 h); 0.4 nM with TIB-202 AML cell line (Homo sapiens, 96 h); 3000 nM in assay [6] (Homo sapiens, 96 h). For the same compound, the “IC50 values for the normal cells compared with IC50 values for the leukemia cell lines (potential therapeutic window)” value in assay [1] is given as “higher than the IC50 values for the leukemia cell lines”.
With `COc1cc2c(Nc3ccc(NC(=O)c4ccccc4)cc3)ncnc2cc1OCCCN1CCOCC1` [ZM447439], the IC50 in the assay with B1 B-ALL cell line worked out at 1000 ± 50 nM; in the assay on HL-60 APML cell line, 1000 ± 100 nM; with MV4-11 AML cell line it was 200 ± 100 nM; in the assay with Molm13 AML cell line, 500 ± 300 nM; in the assay with Normal Lymphocytes, 6000 ± 800 nM; in assay [2], 9 nM. The IC50 in the assay with Bone Marrow Stroma is 2000 ± 400 nM; with Nalm6 B-ALL cell line, 80 ± 4 nM; with CEM T-ALL cell line, 60 ± 30 nM; in assay [3], 10000 nM; in the assay on HL-60 RA APML cell line, 500 ± 300 nM; in assay [4], greater than 10000 nM. Besides, the IC50 with C1 B-ALL cell line stood at 80 ± 20 nM; in the assay with NB4 APML cell line, 4000 ± 2000 nM; with UOCB1 B-ALL cell line, 80 ± 20 nM; with Molt-3 T-ALL cell line, 90 ± 10 nM; in assay [5], 20 nM; in the assay on KOPN8 B-ALL cell line, 100 ± 70 nM. Moreover, the values for the IC50 (with TIB-202 AML cell line; in [6]) were 800 ± 100 nM and 7000 nM, respectively. Moreover, the “IC50 values for the normal cells compared with IC50 values for the leukemia cell lines (potential therapeutic window)” value in assay [1] is “lower than the IC50 values for the normal cells, but not as pronounced”.
